Source: PMC8222394 (Nature Communications, 2021)
Where “and” joins values, the source holds several entries; their conditions need not be identical. Identical values can stand only once. Like-named read-outs stand apart in the source and are kept apart here.

Legend:
SARS-CoV-2 pseudovirus [1] = test: microbe, parasite or virus in culture; type: cell-based; settings: Severe acute respiratory syndrome-related coronavirus
SARS-CoV-2 pseudovirus [2] = test: Cell-based proline treatment, pseudoviral entry; settings: for pseudoviral entry relative to Veh: replicates, listed as HFG
[3] = system: SARS-CoV-2 (wildtype-USA-WA1/2020); type: cell-based
SARS-CoV-2 pseudovirus [4] = type: cell-based
in vitro = settings: human
TMPRSS2 [5] = biological target: T1, TMPRSS2 (Homo sapiens, UniProt O15393); settings: Beas-2B, HFG 3 μM 1 h
Target sequence in this assay (O15393 whole entry): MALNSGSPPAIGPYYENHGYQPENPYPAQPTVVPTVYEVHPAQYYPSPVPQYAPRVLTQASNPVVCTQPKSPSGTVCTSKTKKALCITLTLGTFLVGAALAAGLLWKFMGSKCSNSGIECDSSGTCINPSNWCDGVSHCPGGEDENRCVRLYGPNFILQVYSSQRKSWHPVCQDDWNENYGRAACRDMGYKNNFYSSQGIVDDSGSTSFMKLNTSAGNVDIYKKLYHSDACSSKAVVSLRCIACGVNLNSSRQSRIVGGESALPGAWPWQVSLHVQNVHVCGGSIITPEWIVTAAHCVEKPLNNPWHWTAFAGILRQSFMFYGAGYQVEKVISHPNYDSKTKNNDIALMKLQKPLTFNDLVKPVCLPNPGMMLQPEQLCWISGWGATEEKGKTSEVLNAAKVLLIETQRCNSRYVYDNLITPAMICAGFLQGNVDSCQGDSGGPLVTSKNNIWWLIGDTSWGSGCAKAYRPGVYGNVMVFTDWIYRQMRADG

DCAF1 [6] = test: Cellular thermal shift assay, DCAF1; type: binding, human; settings: Beas-2B, HFG 3 μM 1 h
E-cadherin = test: Immunoblot of E-cadherin in Caco-2 cells; type: cell-based, human
TMPRSS2 [7] = test: In vitro transcription and translation proline treatment assay; type: biochemical; settings: with or without L-proline supplementation
Experimental: TMPRSS2 constructs were synthesized in vitro using TnT Coupled Reticulocyte Lysate System (Promega) following manufacturer’s protocol. HFG plus proline assays were conducted using in vitro transcription and translation kit with free amino acids diluted 5-fold and proline supplemented at indicated concentrations. Following synthesis, products were analyzed via immunoblotting.

SARS-CoV-2 pseudovirus [8] = type: cell-based; remark: listed apart in the source
Ace2-GFP = test: Immunoblot of Ace2-GFP in Beas-2B cells; type: cell-based
[9] = human, 3.5 mg/day Oral; cited from earlier work
TMPRSS2 [10] = biological target: T1, TMPRSS2; test: TMPRSS2 activity assay (Boc-Gln-Ala-Arg-MCA fluorescence); type: biochemical; design: purchased LSBio; settings: for TMPRSS2 activity (FigS9 source data): replicates
Experimental: Fluorescence (380-15 nm excitation/470-20 nm emission) of the samples was monitored over 4:45 h and the slope of the curves was calculated by linear regression analysis and used as output for TMPRSS2 activity.
Target sequence in this assay (O15393 106-492): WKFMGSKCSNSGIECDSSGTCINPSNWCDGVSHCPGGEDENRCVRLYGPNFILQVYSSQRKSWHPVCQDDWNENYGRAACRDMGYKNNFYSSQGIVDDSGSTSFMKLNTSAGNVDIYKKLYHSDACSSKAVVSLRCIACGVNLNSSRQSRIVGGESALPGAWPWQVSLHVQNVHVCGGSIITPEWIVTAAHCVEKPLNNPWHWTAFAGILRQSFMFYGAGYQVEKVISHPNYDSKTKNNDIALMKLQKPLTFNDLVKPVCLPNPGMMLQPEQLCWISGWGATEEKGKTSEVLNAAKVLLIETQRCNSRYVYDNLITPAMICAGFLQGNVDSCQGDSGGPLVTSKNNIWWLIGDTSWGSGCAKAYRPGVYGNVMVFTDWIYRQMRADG

ST14 = test: RT-qPCR of ST14 mRNA in Caco-2 cells; type: cell-based, human; settings: Fig. S3B, Caco-2, 6 hr, relative to Veh
TMPRSS2-V5 = type: cell-based, human
DCAF1 [11] = test: qPCR of DCAF1 gene expression in Caco-2 cells; type: cell-based, human
TMPRSS2 [12] = system: TMPRSS2
[13] = cited from earlier work
TMPRSS2 [14] = settings: for TMPRSS2 densitometry (relative to 0): Fig. 4C, Caco-2, 18 h; for TMPRSS2 densitometry (relative to 0) / TMPRSS2 densitometry, time course: listed as HFG; for TMPRSS2 densitometry, time course: Fig. 4D, Caco-2, 3 µM
TMPRSS2 [15] = settings: Beas-2B; for TMPRSS2 densitometry: Fig. 6A, 6 h, listed as HFG
TMPRSS2 [16] = settings: Calu-3 cells
TMPRSS2 [17] = settings: Caco-2 cells, 18 h treatment then washout

## O=C(CC1NCCCC1O)Cn1cnc2cc(Br)c(Cl)cc2c1=O (stereo not drawn) [Halofuginone]
SARS-CoV-2 pseudovirus [1]; Caco-2, read-out: In vitro IC50 (viral entry)
  IC50: ~30 nM
SARS-CoV-2 pseudovirus [1]; Caco-2, read-out: concentration for 50% reduction in the level of pseudoviral entry
  IC50: ~300 nM
SARS-CoV-2 pseudovirus [2]; concentration 0.0137 (unit not given), 0mM Proline
  pseudoviral entry relative to Veh: 152.697 and 134.687 and 120.427 and 97.7116 and 89.0983 and 90.8546 and 80.2015 and 88.7016
SARS-CoV-2 pseudovirus [2]; concentration 0.0137 (unit not given), 1mM Proline
  pseudoviral entry relative to Veh: 78.8997 and 119.296 and 92.4783 and 61.8538 and 121.318 and 103.717 and 95.0292 and 87.0468
SARS-CoV-2 pseudovirus [2]; concentration 0.0137 (unit not given), 5mM Proline
  pseudoviral entry relative to Veh: 83.8659 and 82.9011 and 90.5346 and 126.552 and 83.6269 and 86.2224 and 92.3835 and 76.5378
SARS-CoV-2 pseudovirus [2]; concentration 0.0412 (unit not given), 0mM Proline
  pseudoviral entry relative to Veh: 135.074 and 83.8509 and 103.144 and 111.461 and 116.846 and 105.51 and 105.878 and 113.705
SARS-CoV-2 pseudovirus [2]; concentration 0.0412 (unit not given), 1mM Proline
  pseudoviral entry relative to Veh: 110.112 and 97.4283 and 87.7103 and 127.69 and 97.5882 and 67.824 and 78.2944 and 117.716
SARS-CoV-2 pseudovirus [2]; concentration 0.0412 (unit not given), 5mM Proline
  pseudoviral entry relative to Veh: 82.5299 and 121.265 and 73.6811 and 85.0503 and 103.755 and 88.171 and 83.5837 and 102.919
SARS-CoV-2 pseudovirus [2]; concentration 0.123 (unit not given), 0mM Proline
  pseudoviral entry relative to Veh: 99.7343 and 63.0974 and 80.3685 and 70.3519 and 79.4198 and 74.6305 and 82.2505 and 58.3341
SARS-CoV-2 pseudovirus [2]; concentration 0.123 (unit not given), 1mM Proline
  pseudoviral entry relative to Veh: 81.4705 and 100.257 and 127.468 and 88.584 and 113.575 and 85.4328 and 91.2395 and 78.3868
SARS-CoV-2 pseudovirus [2]; concentration 0.123 (unit not given), 5mM Proline
  pseudoviral entry relative to Veh: 62.4818 and 82.8199 and 109.855 and 101.172 and 80.2202 and 78.6211 and 92.2054 and 82.6012
SARS-CoV-2 pseudovirus [2]; concentration 0.37 (unit not given), 0mM Proline
  pseudoviral entry relative to Veh: 52.2274 and 41.9717 and 59.924 and 47.6381 and 40.7991 and 39.6967 and 44.7511 and 47.5163
SARS-CoV-2 pseudovirus [2]; concentration 0.37 (unit not given), 1mM Proline
  pseudoviral entry relative to Veh: 63.0963 and 89.0802 and 95.5491 and 76.9085 and 75.5967 and 54.6206 and 124.078 and 94.9093
SARS-CoV-2 pseudovirus [2]; concentration 0.37 (unit not given), 5mM Proline
  pseudoviral entry relative to Veh: 84.0152 and 111.59 and 116.82 and 90.6831 and 82.0915 and 111.563 and 85.8373 and 95.0829
SARS-CoV-2 pseudovirus [2]; proline added to cell culture media
  protection against pseudoviral entry with proline augmentation: ablated
[3]
  reduction of SARS-CoV-2 viral infection: highly effective in reducing SARS-CoV-2 viral infection
SARS-CoV-2 pseudovirus [4]
  pseudoviral GFP expression: markedly reduced levels of GFP expression
In vitro
  CC50: ~5540 nM
TMPRSS2 [5]
  binding to TMPRSS2: does not bind
DCAF1 [6]
  binding to DCAF1: does not bind
E-cadherin
  E-cadherin protein: unaffected
TMPRSS2 [7]
  synthesis of TMPRSS2: can inhibit the in vitro and in vivo synthesis of TMPRSS2 in a proline-dependent fashion
SARS-CoV-2 pseudovirus [8]
  pseudoviral luciferase reporter signal: dose-dependent reduction of the luciferase signal
  signal relative to Control (FigS7 source data): 0.6435 and 0.5799 and 0.5278
Ace2-GFP
  Ace2 protein: unaffected
[9]
  Cmax: 7 nM
TMPRSS2 [10]; 0.08 µM
  TMPRSS2 activity (FigS9 source data): 0.4091 and 0.4156 and 0.3953 and 0.4416
TMPRSS2 [10]; 0.4 µM
  TMPRSS2 activity (FigS9 source data): 0.4106 and 0.359 and 0.3929 and 0.3576
TMPRSS2 [10]; 2 µM
  TMPRSS2 activity (FigS9 source data): 0.4305 and 0.3555 and 0.3601 and 0.3121
TMPRSS2 [10]; recombinant TMPRSS2, preliminary
  TMPRSS2 catalytic activity: does not inhibit TMPRSS2 catalytic activity
ST14
  ST14 mRNA expression: 0.847 and 0.804 and 0.672 and 1.192
TMPRSS2-V5
  TMPRSS2-V5 versus LacZ-V5 expression: selectively reduced TMPRSS2 expression
DCAF1 [11]; Caco-2, 3µM
  DCAF1 gene expression: do not affect DCAF1 gene expression
DCAF1 [11]; block Vehicle/HFG/HHT, replicates, listed as HFG
  relative DCAF1 gene expression: 1.066 and 1.83 and 0.845 and 0.576
TMPRSS2 [12]; Caco-2 cells
  TMPRSS2 transcription: modestly increased
TMPRSS2 [12]; Fig. S3B, Caco-2, 6 hr, relative to Veh
  TMPRSS2 mRNA expression, Set1: 1.663 and 2.342 and 1.988 and 2.135
[13]
  toxicity profile: very mild toxicity profile and is generally well tolerated
TMPRSS2 [14]; Caco-2 cells, 3 µM
  time to substantial reduction in TMPRSS2 expression: within three hours
TMPRSS2 [14]; Caco-2 cells, 18 h
  endogenous TMPRSS2 protein expression: marked reduction
TMPRSS2 [14]; head 1 (unit not given)
  TMPRSS2 densitometry (relative to 0): 0.1807 and 0.1069
TMPRSS2 [14]; head 3
  TMPRSS2 densitometry (relative to 0): 0.1607 and 0.08785
TMPRSS2 [14]; time head 3
  TMPRSS2 densitometry, time course: 0.6876 and 0.6922 and 0.7386
TMPRSS2 [14]; time head 6
  TMPRSS2 densitometry, time course: 0.2973 and 0.5193 and 0.5743
TMPRSS2 [14]; time head 24
  TMPRSS2 densitometry, time course: 0.2861 and 0.2479 and 0.396
TMPRSS2 [15]; DCAF1 siRNA
  effect on TMPRSS2 protein levels in DCAF1-knockdown cells: abrogated
TMPRSS2 [15]; control siRNA
  TMPRSS2 expression in control knockdown cells: reduced TMPRSS2 expression
TMPRSS2 [15]; Ctrl siRNA, HFG 100 nM
  TMPRSS2 densitometry: 0.643 and 0.6245 and 0.6321
TMPRSS2 [15]; Ctrl siRNA, HFG 300 nM
  TMPRSS2 densitometry: 0.4952 and 0.3574 and 0.5989
TMPRSS2 [15]; DCAF1 KD 1, HFG 100 nM
  TMPRSS2 densitometry: 1.233 and 1.219 and 1.274
TMPRSS2 [15]; DCAF1 KD 1, HFG 300 nM
  TMPRSS2 densitometry: 1.254 and 1.215 and 1.261
TMPRSS2 [15]; DCAF1 KD 2, HFG 100 nM
  TMPRSS2 densitometry: 1.233 and 1.237 and 1.31
TMPRSS2 [15]; DCAF1 KD 2, HFG 300 nM
  TMPRSS2 densitometry: 1.246 and 1.239 and 1.116
TMPRSS2 [16]
  TMPRSS2 protein levels: qualitatively similar decreases
TMPRSS2 [17]
  recovery of TMPRSS2 levels after drug removal: returned close to baseline roughly six hours after drug removal
